Patent publication US20060270740A1, “Prostaglandin derivatives” (TAISHO PHARMACEUTICAL CO., LTD. and Fumie SATO, priority 2003, published 2006)
Like-named read-outs stand apart in the source and are kept apart here.

How the values were obtained:
[1] = biological target: T1, PGD2 receptor (DP receptor) (Homo sapiens, UniProt Q13258); assay: PGD2 receptor (DP receptor) binding test, [3H]PGD2, human platelet membrane fraction; details: 5 nM [3H]PGD2, 4 degree C., 90 minutes, read-out: Inhibition constant Ki
T1 construct: twice centrifuged at 105,000×g for 20 minutes at 4 degree C. to obtain platelet membrane fraction as precipitate; from tissue; host or cells: human platelet membrane fraction from blood of a healthy adult
T1 sequence (Q13258 1-359): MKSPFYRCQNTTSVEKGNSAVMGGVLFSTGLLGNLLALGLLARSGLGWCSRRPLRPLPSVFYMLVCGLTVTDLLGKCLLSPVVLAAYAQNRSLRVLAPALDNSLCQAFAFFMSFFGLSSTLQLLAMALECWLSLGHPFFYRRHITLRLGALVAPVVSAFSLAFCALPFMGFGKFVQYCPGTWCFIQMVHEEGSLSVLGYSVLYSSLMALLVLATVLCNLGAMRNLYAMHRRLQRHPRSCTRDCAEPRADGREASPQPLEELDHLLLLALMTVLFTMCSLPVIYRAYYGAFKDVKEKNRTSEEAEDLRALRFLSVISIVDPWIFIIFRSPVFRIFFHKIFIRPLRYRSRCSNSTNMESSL
Experimental: The test was conducted in accordance with the method of TsurI et al. (J. Med. Chem., 40, 3504-3507 (1997)).
(1) Preparation of Human Platelet Membrane Fraction
A sample of blood drawn from a healthy adult using a plastic syringe was placed in a plastic test tube containing 3.8% sodium citrate, and after gently mixing by overturning centrifuged at room temperature at 180×g for 20 minutes to obtain platelet-rich plasma (PRP) as supernatant. The PRP was further centrifuged at room temperature at 800×g for 20 minutes to obtain platelet as precipitate. […]
The human platelet membrane fraction (0.1 mg), 5 nM [3H]PGD2, and each compound was added to 200 μl of binding reaction solution (50 mM Tris/HCl (pH 7.4), 1 mM EDTA, 10 mM MgCl2), and reaction was conducted at 4 degree C. for 90 minutes. After reaction, the mixture was filtered under vacuum using a glass fiber filter paper, and after rinsing several times with cold physiological sodium chloride solution, residual radio activity on the filter paper was measured. The quantity of nonspecific binding in the present experiment was calculated as the quantity of radioactivity when a similar experiment was conducted in the presence of 10 μM PGD2, and the quantity of specific binding was given as the value of quantity of total binding minus quantity of nonspecific binding. […]

[2] = biological target: T2, PGD2 receptor (Bos taurus, UniProt A5D7K8); assay: Competitive inhibition activity test to PGD2 receptor, cAMP production in EBTr[NBL-4] cells; assay type: cell-based, bovine; details: 37 degree C., 15 minutes
T2 construct: EBTr[NBL-4] cells derived from embryonic bovine trachea; endogenous in cells; host or cells: EBTr[NBL-4] cells (embryonic bovine trachea)
T2 sequence (A5D7K8 1-361): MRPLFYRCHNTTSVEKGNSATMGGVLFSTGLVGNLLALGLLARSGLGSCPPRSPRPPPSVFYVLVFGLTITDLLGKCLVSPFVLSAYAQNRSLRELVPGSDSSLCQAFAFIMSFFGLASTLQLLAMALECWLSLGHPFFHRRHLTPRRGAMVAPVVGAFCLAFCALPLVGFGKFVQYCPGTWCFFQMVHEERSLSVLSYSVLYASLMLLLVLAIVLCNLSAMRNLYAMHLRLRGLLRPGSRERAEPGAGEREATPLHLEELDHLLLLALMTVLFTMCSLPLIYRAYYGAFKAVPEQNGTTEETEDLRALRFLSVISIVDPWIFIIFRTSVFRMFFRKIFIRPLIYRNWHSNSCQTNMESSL
Experimental: EBTr[NBL-4] cells derived from embryonic bovine trachea were seeded on a micro-plate with 96 wells, at 8000 cells/well, and used for the experiment after culturing for 2 days in the presence of MEM culture medium (containing 10% calf cerum). The experiment was conducted in a MEM culture medium containing 500 μM IBMX and 10% calf serum. 100 μl of culture medium containing PGD2 and the test compound was added to initiate the reaction, and after reaction at 37 degree C. for 15 minutes, the culture medium was removed and ice-chilled PBS was added to terminate the reaction. Further, after removal of PBS, 200 μl of cytolytic agent (Lysis reagent 1) in cAMP enzymeImmunoassay system (Amersham) was added and cytolysis was brought about by shaking at room temperature for 10 minutes. The quantity of cAMP in the cytolytic agent was determined in accordance with the method described in the cAMP enzymeImmunoassay system. The inhibition activity of the test compound was calculated with the pA2 value as an indicator using the IC50 value when cAMP production quantity in the presence of 100 nM, 1 μM PGD2 was taken as 100%.

[3] = Competitive inhibition activity IC50, PGD2 (100 nM), PGD2 (100 nM) as printed, read-out: Competitive inhibition activity IC50, PGD1 (100 nM)
[4] = PGD2 (1 μM), read-out: Competitive inhibition activity IC50, PGD2 (1 μM)

Ki [1] | IC50 [2, 3] | IC50 [2, 4] | SMILES
0.8 nM | 730 nM | 1160 nM | O=C(O)Cc1cccc(CC[C@@H]2[C@@H](C#C[C@@H](O)C3CCCCC3)[C@H](O)C[C@H]2Cl)c1 [Compound 38, 9-Deoxy-9β-chloro-3,4,5,16,17,18,19,20-octanol-2,6-inter-m-phenylene-15-cyclohexyl-13,14-didehydro-PGF1α]
2.3 nM | 3420 nM | 5370 nM | O=C(O)Cc1ccccc1CC[C@@H]1[C@@H](C#C[C@@H](O)C2CCCCC2)[C@H](O)C[C@H]1Cl [Compound 51, 9-Deoxy-9β-chloro-3,4,5, 16, 17, 18, 19,20-octanol-2,6-inter-o-phenylene-15-cyclohexyl-13,14-didehydro-PGF1α]
